Paper PMC8541633, “A Novel Statin Compound from Monacolin J Produced Using CYP102A1-Catalyzed Regioselective C-Hydroxylation” (Pharmaceuticals, 2021)

What was measured:
HMG-CoA reductase = target: T1, HMG-CoA reductase (Homo sapiens, UniProt P04035); test: HMG-CoA reductase assay kit (Sigma-Aldrich), spectrophotometry at […] nm; format: biochemical
T1 construct: gene HMGCR
T1 sequence (P04035 1-888): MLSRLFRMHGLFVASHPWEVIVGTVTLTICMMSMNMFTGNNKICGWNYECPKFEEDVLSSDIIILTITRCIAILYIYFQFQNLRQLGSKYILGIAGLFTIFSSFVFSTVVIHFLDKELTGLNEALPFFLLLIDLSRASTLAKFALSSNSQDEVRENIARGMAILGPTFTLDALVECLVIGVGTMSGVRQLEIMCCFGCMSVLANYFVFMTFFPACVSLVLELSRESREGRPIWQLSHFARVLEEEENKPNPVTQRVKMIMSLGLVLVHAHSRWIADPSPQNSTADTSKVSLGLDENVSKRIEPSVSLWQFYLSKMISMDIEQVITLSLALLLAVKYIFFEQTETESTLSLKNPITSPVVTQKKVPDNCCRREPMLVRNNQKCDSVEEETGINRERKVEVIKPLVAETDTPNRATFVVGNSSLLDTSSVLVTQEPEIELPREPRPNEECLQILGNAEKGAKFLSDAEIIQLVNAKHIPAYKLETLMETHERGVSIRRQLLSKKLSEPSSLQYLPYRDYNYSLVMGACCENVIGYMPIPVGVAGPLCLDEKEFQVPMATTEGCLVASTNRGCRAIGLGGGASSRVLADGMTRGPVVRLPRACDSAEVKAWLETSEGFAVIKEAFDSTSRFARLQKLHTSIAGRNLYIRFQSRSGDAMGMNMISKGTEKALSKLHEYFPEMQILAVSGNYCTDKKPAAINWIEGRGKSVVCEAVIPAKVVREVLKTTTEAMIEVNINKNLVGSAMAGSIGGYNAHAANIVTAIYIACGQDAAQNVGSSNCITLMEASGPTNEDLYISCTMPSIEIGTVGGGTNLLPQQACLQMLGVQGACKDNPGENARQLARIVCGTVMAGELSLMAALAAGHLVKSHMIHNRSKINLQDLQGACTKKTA

CYP3A4 = target: T2, CYP3A4 (Homo sapiens, UniProt P08684); test: hydroxylation by recombinant CYP3A4 membranes, HPLC and LC-MS (turnover rate); format: biochemical
T2 construct: recombinant, E. coli membrane fractions; with rat NADPH-P450 reductase (CPR)
T2 sequence (P08684 2-503): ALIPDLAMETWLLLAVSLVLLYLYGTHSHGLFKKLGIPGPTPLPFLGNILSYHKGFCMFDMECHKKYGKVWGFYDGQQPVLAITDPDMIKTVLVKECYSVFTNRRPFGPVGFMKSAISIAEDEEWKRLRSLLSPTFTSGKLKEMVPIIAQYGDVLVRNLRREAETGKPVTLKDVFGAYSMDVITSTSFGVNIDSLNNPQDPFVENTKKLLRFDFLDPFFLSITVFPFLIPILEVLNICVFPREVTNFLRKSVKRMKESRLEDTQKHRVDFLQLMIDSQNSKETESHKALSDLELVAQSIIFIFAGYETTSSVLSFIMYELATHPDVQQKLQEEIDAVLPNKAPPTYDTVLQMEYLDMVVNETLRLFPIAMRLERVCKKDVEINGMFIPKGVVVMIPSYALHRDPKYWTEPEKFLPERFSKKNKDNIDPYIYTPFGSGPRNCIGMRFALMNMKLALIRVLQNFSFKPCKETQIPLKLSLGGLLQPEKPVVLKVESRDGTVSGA
T2 sequence (P00388 2-678, further chain): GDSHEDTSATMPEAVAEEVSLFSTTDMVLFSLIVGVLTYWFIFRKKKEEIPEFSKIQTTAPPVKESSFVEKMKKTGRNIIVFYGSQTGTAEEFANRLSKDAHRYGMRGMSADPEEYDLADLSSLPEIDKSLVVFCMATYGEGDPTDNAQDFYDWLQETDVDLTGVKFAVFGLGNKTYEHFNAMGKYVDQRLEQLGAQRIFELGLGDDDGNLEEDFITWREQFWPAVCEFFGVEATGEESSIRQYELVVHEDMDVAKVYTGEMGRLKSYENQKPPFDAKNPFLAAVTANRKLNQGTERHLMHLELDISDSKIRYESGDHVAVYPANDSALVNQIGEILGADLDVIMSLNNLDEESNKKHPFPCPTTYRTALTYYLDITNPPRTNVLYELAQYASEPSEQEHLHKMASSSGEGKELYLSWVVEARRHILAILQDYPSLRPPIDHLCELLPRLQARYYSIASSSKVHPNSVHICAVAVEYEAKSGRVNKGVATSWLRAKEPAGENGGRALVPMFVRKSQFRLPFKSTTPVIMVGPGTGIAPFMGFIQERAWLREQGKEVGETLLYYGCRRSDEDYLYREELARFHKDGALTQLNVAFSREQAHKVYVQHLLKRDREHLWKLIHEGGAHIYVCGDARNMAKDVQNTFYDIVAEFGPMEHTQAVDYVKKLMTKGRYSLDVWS

SMILES	IC50 (HMG-CoA reductase)	hydroxylation by recombinant CYP3A4 membranes, HPLC and LC-MS (turnover rate) (CYP3A4)
C[C@H]1C=CC2=C[C@H](CO)C[C@H](O)[C@@H]2[C@H]1CC[C@@H]1C[C@@H](O)CC(=O)O1 [6′a-hydroxymethyl monacolin J]	285 µM	
C[C@H]1C=C2C=C[C@H](C)[C@H](CC[C@@H]3C[C@@H](O)CC(=O)O3)[C@H]2[C@@H](O)C1 [monacolin J]		0.040 nmol product min^−1 nmol P450^−1
